In PubChem BioAssay (NCI):
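48-hour exposure; five concentrations; linearly interpolated endpoints. The concentration for full growth arrest is given as TGI.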

tested on: MDA-MB-231 breast; experiment: DTP human tumour cell line panel, 48 h

Compound | TGI
NC(N)=NCCN=C(N)N | > 100 µM
CC[N+](CC)(CCNCC(N)=O)CC(N)=O | > 10 µM
COc1ccc(N=C2SC(=N/N=c3\sc4ccccc4n3C)SC2=Nc2ccc(OC)cc2)cc1 | 66 µM
CCOC(=O)C1=CC(C)(C(=O)OCC)Nc2c(nc(OC)n(C)c2=O)N1 (stereo not given) | > 10 µM
Cc1ccc(/C=N/n2c(=O)[nH]c3ccccc3c2=O)cc1 | > 100 µM
S=C(c1c[nH]c2ccccc12)N1CCOCC1 | > 100 µM
Cc1nc2ccccc2c(=O)n1NC(=O)c1ccc(CS)cc1 | 84.6 µM
CNc1ccc(OC)cc1S(=O)(=O)c1ccccc1[N+](=O)[O-] | > 100 µM
O=[N+]([O-])c1ccc(/C=N/n2c(CO)nc3ccccc32)o1 | 20.6 µM

tested on: BT-549 breast; experiment: DTP human tumour cell line panel, 48 h

Compound | TGI
CC1CC(N)=Nc2ccccc2N1 (stereo not given) | > 100 µM
CC(=O)Nc1cc(C(=O)Nc2cc(C(=O)N3CC(CCl)c4c3cc(N)c3ccccc43)nn2C)nn1C (stereo not given) | 0.883 µM
CC(C)(Cc1ccccc1)NC1=NCCO1 | > 100 µM
O=C(O)c1n[nH]nc1Cl | > 100 µM
CN(c1ccc(Cl)cc1)S(=O)(=O)c1cccc([N+](=O)[O-])c1 | > 100 µM
NC(Cc1cccc([N+](=O)[O-])c1)C(=O)O (stereo not given) | > 100 µM
Clc1c(Cl)c(Cl)c2nn(C3CCCO3)nc2c1Cl (stereo not given) | 80.5 µM
CN(c1ccc(Cl)cc1)S(=O)(=O)c1ccc([N+](=O)[O-])cc1 | > 100 µM
CS(=O)(=O)Nc1ccc(N2Cc3cnc4ccc5[nH]ccc2c5c34)cc1 | 51.3 µM
CC(C)(C)C(=O)OCC1CCC[N+]2(C)CCCCC12 (stereo not given) | > 100 µM
CCn1c(-c2cc(OC)cc(OC)c2)nc2c1C(=O)c1ccccc1C2=O | > 100 µM
CN1C(=O)N/C(=C\c2ccc(S(=O)(=O)NN)cc2)C1=O | > 100 µM
Cc1cc(N(CCC#N)CCC#N)ccc1/C(N=Nc1ccc([N+](=O)[O-])cc1)=N\NC(=O)c1cc(Cl)ccc1C(=O)c1ccccc1 | > 100 µM
O=C1N=c2ccccc2=C1c1c(O)[nH]c2ccccc12 | 96.2 µM
CCCCCCCCCCCCCCCCCCNc1ccn(C2OC(COP(=O)(O)OCC3OC(n4cc(C)c(=O)[nH]c4=O)CC3O)C(O)C2O)c(=O)n1 (stereo not given) | 29.9 µM
CC(=O)OCc1cc(CCC(=O)NCCNc2c3ccccc3nc3ccccc23)cc(COC(C)=O)c1O[Si](C)(C)C(C)(C)C | 34.2 µM
NC(N)=NCCN=C(N)N | > 100 µM
CC[N+](CC)(CCNCC(N)=O)CC(N)=O | > 10 µM
COc1ccc(N=C2SC(=N/N=c3\sc4ccccc4n3C)SC2=Nc2ccc(OC)cc2)cc1 | > 100 µM
CCOC(=O)C1=CC(C)(C(=O)OCC)Nc2c(nc(OC)n(C)c2=O)N1 (stereo not given) | > 10 µM
Cc1ccc(/C=N/n2c(=O)[nH]c3ccccc3c2=O)cc1 | > 100 µM
S=C(c1c[nH]c2ccccc12)N1CCOCC1 | > 100 µM
Cc1nc2ccccc2c(=O)n1NC(=O)c1ccc(CS)cc1 | 46.3 µM
CNc1ccc(OC)cc1S(=O)(=O)c1ccccc1[N+](=O)[O-] | > 100 µM
O=[N+]([O-])c1ccc(/C=N/n2c(CO)nc3ccccc32)o1 | 27.6 µM

tested on: UO-31 renal; experiment: DTP human tumour cell line panel, 48 h

Compound | TGI
CC1CC(N)=Nc2ccccc2N1 (stereo not given) | > 100 µM
CC(=O)Nc1cc(C(=O)Nc2cc(C(=O)N3CC(CCl)c4c3cc(N)c3ccccc43)nn2C)nn1C (stereo not given) | 1.35 µM
CC(C)(Cc1ccccc1)NC1=NCCO1 | > 100 µM
O=C(O)c1n[nH]nc1Cl | > 100 µM
CN(c1ccc(Cl)cc1)S(=O)(=O)c1cccc([N+](=O)[O-])c1 | > 100 µM
NC(Cc1cccc([N+](=O)[O-])c1)C(=O)O (stereo not given) | > 100 µM
CN(c1ccc(Cl)cc1)S(=O)(=O)c1ccc([N+](=O)[O-])cc1 | > 100 µM
CS(=O)(=O)Nc1ccc(N2Cc3cnc4ccc5[nH]ccc2c5c34)cc1 | > 100 µM
CC(C)(C)C(=O)OCC1CCC[N+]2(C)CCCCC12 (stereo not given) | > 100 µM
CN1C(=O)N/C(=C\c2ccc(S(=O)(=O)NN)cc2)C1=O | > 100 µM
Cc1cc(N(CCC#N)CCC#N)ccc1/C(N=Nc1ccc([N+](=O)[O-])cc1)=N\NC(=O)c1cc(Cl)ccc1C(=O)c1ccccc1 | 60.5 µM
O=C1N=c2ccccc2=C1c1c(O)[nH]c2ccccc12 | 30.5 µM
CCCCCCCCCCCCCCCCCCNc1ccn(C2OC(COP(=O)(O)OCC3OC(n4cc(C)c(=O)[nH]c4=O)CC3O)C(O)C2O)c(=O)n1 (stereo not given) | 33.9 µM
CC(=O)OCc1cc(CCC(=O)NCCNc2c3ccccc3nc3ccccc23)cc(COC(C)=O)c1O[Si](C)(C)C(C)(C)C | 31.1 µM
NC(N)=NCCN=C(N)N | > 100 µM
CC[N+](CC)(CCNCC(N)=O)CC(N)=O | > 10 µM
COc1ccc(N=C2SC(=N/N=c3\sc4ccccc4n3C)SC2=Nc2ccc(OC)cc2)cc1 | > 100 µM
CCOC(=O)C1=CC(C)(C(=O)OCC)Nc2c(nc(OC)n(C)c2=O)N1 (stereo not given) | > 10 µM
Cc1ccc(/C=N/n2c(=O)[nH]c3ccccc3c2=O)cc1 | > 100 µM
S=C(c1c[nH]c2ccccc12)N1CCOCC1 | > 100 µM
Cc1nc2ccccc2c(=O)n1NC(=O)c1ccc(CS)cc1 | 29.9 µM
CNc1ccc(OC)cc1S(=O)(=O)c1ccccc1[N+](=O)[O-] | > 100 µM
O=[N+]([O-])c1ccc(/C=N/n2c(CO)nc3ccccc32)o1 | 22.9 µM

tested on: HL-60(TB) leukemia; experiment: DTP human tumour cell line panel, 48 h

Compound | TGI
CC1CC(N)=Nc2ccccc2N1 (stereo not given) | > 100 µM
CC(=O)Nc1cc(C(=O)Nc2cc(C(=O)N3CC(CCl)c4c3cc(N)c3ccccc43)nn2C)nn1C (stereo not given) | < 0.0344 µM
CC(C)(Cc1ccccc1)NC1=NCCO1 | > 100 µM
O=C(O)c1n[nH]nc1Cl | > 100 µM
NC(Cc1cccc([N+](=O)[O-])c1)C(=O)O (stereo not given) | > 100 µM
CN(c1ccc(Cl)cc1)S(=O)(=O)c1ccc([N+](=O)[O-])cc1 | > 100 µM
CS(=O)(=O)Nc1ccc(N2Cc3cnc4ccc5[nH]ccc2c5c34)cc1 | 64.4 µM
CCn1c(-c2cc(OC)cc(OC)c2)nc2c1C(=O)c1ccccc1C2=O | > 100 µM
CN1C(=O)N/C(=C\c2ccc(S(=O)(=O)NN)cc2)C1=O | > 100 µM
CC(=O)OCc1cc(CCC(=O)NCCNc2c3ccccc3nc3ccccc23)cc(COC(C)=O)c1O[Si](C)(C)C(C)(C)C | 6.2 µM
NC(N)=NCCN=C(N)N | > 100 µM
CC[N+](CC)(CCNCC(N)=O)CC(N)=O | > 10 µM
Cc1ccc(/C=N/n2c(=O)[nH]c3ccccc3c2=O)cc1 | > 100 µM
S=C(c1c[nH]c2ccccc12)N1CCOCC1 | > 100 µM
Cc1nc2ccccc2c(=O)n1NC(=O)c1ccc(CS)cc1 | > 100 µM
CNc1ccc(OC)cc1S(=O)(=O)c1ccccc1[N+](=O)[O-] | > 100 µM
O=[N+]([O-])c1ccc(/C=N/n2c(CO)nc3ccccc32)o1 | 9.41 µM

tested on: SK-MEL-2 melanoma; experiment: DTP human tumour cell line panel, 48 h

Compound | TGI
CC1CC(N)=Nc2ccccc2N1 (stereo not given) | > 100 µM
CC(=O)Nc1cc(C(=O)Nc2cc(C(=O)N3CC(CCl)c4c3cc(N)c3ccccc43)nn2C)nn1C (stereo not given) | 0.427 µM
CC(C)(Cc1ccccc1)NC1=NCCO1 | > 100 µM
O=C(O)c1n[nH]nc1Cl | > 100 µM
CN(c1ccc(Cl)cc1)S(=O)(=O)c1cccc([N+](=O)[O-])c1 | > 100 µM
NC(Cc1cccc([N+](=O)[O-])c1)C(=O)O (stereo not given) | > 100 µM
Clc1c(Cl)c(Cl)c2nn(C3CCCO3)nc2c1Cl (stereo not given) | > 100 µM
CN(c1ccc(Cl)cc1)S(=O)(=O)c1ccc([N+](=O)[O-])cc1 | > 100 µM
CS(=O)(=O)Nc1ccc(N2Cc3cnc4ccc5[nH]ccc2c5c34)cc1 | 31.7 µM
CC(C)(C)C(=O)OCC1CCC[N+]2(C)CCCCC12 (stereo not given) | > 100 µM
CN1C(=O)N/C(=C\c2ccc(S(=O)(=O)NN)cc2)C1=O | > 100 µM
Cc1cc(N(CCC#N)CCC#N)ccc1/C(N=Nc1ccc([N+](=O)[O-])cc1)=N\NC(=O)c1cc(Cl)ccc1C(=O)c1ccccc1 | 57.8 µM
O=C1N=c2ccccc2=C1c1c(O)[nH]c2ccccc12 | 58.9 µM
CC(=O)OCc1cc(CCC(=O)NCCNc2c3ccccc3nc3ccccc23)cc(COC(C)=O)c1O[Si](C)(C)C(C)(C)C | 23.8 µM
NC(N)=NCCN=C(N)N | > 100 µM
CC[N+](CC)(CCNCC(N)=O)CC(N)=O | > 10 µM
COc1ccc(N=C2SC(=N/N=c3\sc4ccccc4n3C)SC2=Nc2ccc(OC)cc2)cc1 | > 100 µM
CCOC(=O)C1=CC(C)(C(=O)OCC)Nc2c(nc(OC)n(C)c2=O)N1 (stereo not given) | > 10 µM
Cc1ccc(/C=N/n2c(=O)[nH]c3ccccc3c2=O)cc1 | > 100 µM
S=C(c1c[nH]c2ccccc12)N1CCOCC1 | > 100 µM
CNc1ccc(OC)cc1S(=O)(=O)c1ccccc1[N+](=O)[O-] | > 100 µM
O=[N+]([O-])c1ccc(/C=N/n2c(CO)nc3ccccc32)o1 | 24.1 µM

tested on: SF-295 CNS; experiment: DTP human tumour cell line panel, 48 h

Compound | TGI
CC1CC(N)=Nc2ccccc2N1 (stereo not given) | > 100 µM
CC(=O)Nc1cc(C(=O)Nc2cc(C(=O)N3CC(CCl)c4c3cc(N)c3ccccc43)nn2C)nn1C (stereo not given) | 4.41 µM
CC(C)(Cc1ccccc1)NC1=NCCO1 | > 100 µM
O=C(O)c1n[nH]nc1Cl | > 100 µM
CN(c1ccc(Cl)cc1)S(=O)(=O)c1cccc([N+](=O)[O-])c1 | > 100 µM
NC(Cc1cccc([N+](=O)[O-])c1)C(=O)O (stereo not given) | > 100 µM
Clc1c(Cl)c(Cl)c2nn(C3CCCO3)nc2c1Cl (stereo not given) | > 100 µM
CN(c1ccc(Cl)cc1)S(=O)(=O)c1ccc([N+](=O)[O-])cc1 | > 100 µM
CS(=O)(=O)Nc1ccc(N2Cc3cnc4ccc5[nH]ccc2c5c34)cc1 | > 100 µM
CC(C)(C)C(=O)OCC1CCC[N+]2(C)CCCCC12 (stereo not given) | > 100 µM
CCn1c(-c2cc(OC)cc(OC)c2)nc2c1C(=O)c1ccccc1C2=O | > 100 µM
CN1C(=O)N/C(=C\c2ccc(S(=O)(=O)NN)cc2)C1=O | > 100 µM
Cc1cc(N(CCC#N)CCC#N)ccc1/C(N=Nc1ccc([N+](=O)[O-])cc1)=N\NC(=O)c1cc(Cl)ccc1C(=O)c1ccccc1 | > 100 µM
O=C1N=c2ccccc2=C1c1c(O)[nH]c2ccccc12 | > 100 µM
CCCCCCCCCCCCCCCCCCNc1ccn(C2OC(COP(=O)(O)OCC3OC(n4cc(C)c(=O)[nH]c4=O)CC3O)C(O)C2O)c(=O)n1 (stereo not given) | 33.1 µM
CC(=O)OCc1cc(CCC(=O)NCCNc2c3ccccc3nc3ccccc23)cc(COC(C)=O)c1O[Si](C)(C)C(C)(C)C | 11.7 µM
NC(N)=NCCN=C(N)N | > 100 µM
CC[N+](CC)(CCNCC(N)=O)CC(N)=O | > 10 µM
COc1ccc(N=C2SC(=N/N=c3\sc4ccccc4n3C)SC2=Nc2ccc(OC)cc2)cc1 | > 100 µM
